The results in this text go back to patent publication US20260166162A1, “CARBON CHAIN SUBSTANCE FOR REGULATING TRANSMEMBRANE TRANSPORT AND FLUIDITY OF CELL MEMBRANES, AND PREPARATION AND USE THEREOF” (priority 2022, published 2026).

Values joined by “and” are separate entries in the source; they are usually repeats but may differ in a detail not shown here. Equal values may be shown once. Read-outs that look alike come from different tables or passages of the source.

The subject of one assay is 293T cells. As to the kind of experiment: Cellular phagocytosis of DiD-loaded lipid vesicles (nano-drugs) by 293T cells (Example II-51, Table II-29). Type of assay: cell-based. As to conditions: 293T cells pretreated 4 h, DiD lipid vesicles 2 h, n=3, untreated control 226.46 ± 1.26.
In a further assay the test system is rabies pseudovirus. Type of assay: cell-based.
Assay [1] relates to influenza pseudovirus H7N9-Fluc. Put plainly: microbe, parasite or virus in culture. Type of assay: cell-based. As to conditions: Pseudovirus, H7N9, n=3, read-out: Inhibition rate (%); for inhibition at 0.002 µM: 2 nM; for inhibition at 0.005 µM: 5 nM; for inhibition at 0.01 µM: 10 nM; for inhibition at 0.05 µM: 50 nM; for inhibition at 0.1 µM: 100 nM.
A further assay deals with IL-1β. Put plainly: Skin photoaging (UVB) in BALB/c nude mice, serum IL-1β (Example II-54, Table II-33). To be noted: serum, UVB-irradiated BALB/c nude mice, 40 days. The format is in vivo, mouse.
The test system of another assay is TNF-α. As to the kind of experiment: Skin photoaging (UVB) in BALB/c nude mice, serum TNF-α (Example II-54, Table II-32). The format is in vivo, mouse. As to conditions: UVB-irradiated BALB/c nude mice, 40 days.
For another assay, the system named is IL-6. As to the kind of experiment: Skin photoaging (UVB) in BALB/c nude mice, serum IL-6 (Example II-54, Table II-34). The format is in vivo, mouse. To be noted: serum, UVB-irradiated BALB/c nude mice, 40 days.
In a further assay the test system is Neocopyovirus. The format is in vivo. To be noted: 1 mM; n=3.
For assay [2], the system named is SARS-CoV-2 pseudovirus (B.1.526.2). The format is cell-based.
Assay [3] deals with HPV pseudovirus (HPV6-GFP). The format is cell-based. As to conditions: 293FT cells pretreated 4 h, n=3.

For the compound `CC/C=C\C/C=C\C/C=C\C/C=C\C/C=C\C/C=C\CCC(=O)OCC(O)C1OC(=O)C(O)=C1O` (stereo not drawn) [Ascorbic Acid-DHA], the Fluorescence intensity came to 98.37 ± 7.89 in the assay with 293T cells (2 nM); 92.26 ± 8.23 with 293T cells (5 nM); 69.70 ± 4.55 in the assay on 293T cells (10 nM); 73.98 ± 5.36 in the assay with 293T cells (50 nM); 243.38 ± 11.00 with 293T cells (100 nM); 253.70 ± 10.23 with 293T cells (1 uM). Also, the figures for the Fluorescence intensity in the assay with 293T cells (10 uM), with 293T cells (50 uM) and with 293T cells (100 uM) were 58.97 ± 1.55, 39.02 ± 1.03 and 19.86 ± 0.23, respectively. Further, the “Inhibition rate (%)” value turned out to be 51.40 ± 1.54% in the assay on rabies pseudovirus (2 nM, n=3); 51.99 ± 3.99% in the assay with rabies pseudovirus (5 nM, n=3); 64.84 ± 6.57% in the assay with rabies pseudovirus (10 nM, n=3); 70.88 ± 4.22% in the assay with rabies pseudovirus (50 nM, n=3); 79.06 ± 2.39% in the assay on rabies pseudovirus (100 nM, n=3); 14.83 ± 4.26% in the assay on rabies pseudovirus (1 μM, n=3). The “Inhibition rate (%)” value with rabies pseudovirus (10 μM, n=3) turned out to be 34.88 ± 5.99%; in the assay with rabies pseudovirus (50 μM, n=3), 95.55 ± 6.98%; with rabies pseudovirus (100 μM, n=3), 99.08 ± 6.36%.

Broadly, the inhibition is the relative decrease from the control value, in per cent. `CCCCCCCCC(=O)O` [Nonanoic acid]: the Fluorescence intensity with 293T cells (2 nM) stood at 157.30 ± 7.06. Further, in the assay with 293T cells (5 nM), the Fluorescence intensity is listed as 176.50 ± 7.06. In addition, the Fluorescence intensity in the assay on 293T cells (10 nM) turned out to be 106.35 ± 4.65. Moreover, the Fluorescence intensity in the assay on 293T cells (50 nM) came to 98.90 ± 8.26. In the assay on 293T cells (100 nM), the Fluorescence intensity came to 106.35 ± 5.06. In addition, the Fluorescence intensity in the assay with 293T cells (1 uM) was found to be 243.20 ± 13.65. Moreover, the Fluorescence intensity in the assay with 293T cells (10 uM) is listed as 135.36 ± 11.03. For the same compound, the Fluorescence intensity in the assay on 293T cells (50 uM) amounted to 64.86 ± 5.54. Also, the Fluorescence intensity with 293T cells (100 uM) stood at 104.28 ± 10.25. In assay [1], the inhibition at 0.002 µM came to 42 ± 3.06%, the inhibition at 0.005 µM is 49.7 ± 1.56%, the inhibition at 0.01 µM stood at 58.3 ± 4.02% and the inhibition at 0.05 µM is 57.3 ± 1.66%. In addition, in assay [1], the inhibition at 0.1 µM is 36.4 ± 2.33%, the inhibition at 1 µM is -4.93 ± 0.23%, the inhibition at 10 µM was determined as 34.8 ± 3.06% and the inhibition at 50 µM turned out to be 40.1 ± 1.23%. Moreover, the inhibition at 100 µM in [1] was determined as 43.8 ± 4.38%.

In the case of `CCC=CCC=CCC=CCCCCCCCC(=O)OCC(N)C(=O)O` (stereo not drawn) [Ser-linolenic acid], the IL-1β in the assay with IL-1β (30 μM smeared) turned out to be 62 pg/mL; with IL-1β (50 μM smeared), 53 pg/mL; with IL-1β (100 μM smeared), 58 pg/mL. The TNF-α was 51 pg/mL with TNF-α (30 μM smeared), 49 pg/mL in the assay on TNF-α (50 μM smeared) and 47 pg/mL in the assay with TNF-α (100 μM smeared). For the same compound, the values for the IL-6 in the assay with IL-6 (30 μM smeared), in the assay with IL-6 (50 μM smeared) and in the assay on IL-6 (100 μM smeared) were 29 pg/mL, 33 pg/mL and 31 pg/mL, respectively.

For `CCC=CCC=CCC=CCC=CCC=CCCCC(=O)OCC(N)C(=O)O` (stereo not drawn) [Serine-EPA], the Fluorescence intensity in the assay with Neocopyovirus came out at 4.8 ± 0.96.

As for `C=CCCCCCCCCC(=O)[O-].[Na+]` [Sodium undecylenate], the Fluorescence intensity with 293T cells (2 nM) is 135.63 ± 7.06. The Fluorescence intensity in the assay with 293T cells (5 nM) came out at 100.34 ± 8.06. Also, in the assay with 293T cells (10 nM), the Fluorescence intensity is 89.79 ± 4.98. The Fluorescence intensity in the assay with 293T cells (50 nM) is on record as 62.57 ± 3.60. Besides, the Fluorescence intensity in the assay on 293T cells (100 nM) is on record as 57.18 ± 5.23. Besides, in the assay with 293T cells (1 uM), the Fluorescence intensity came to 232.89 ± 12.26. For the same compound, in the assay on 293T cells (10 uM), the Fluorescence intensity was 325.29 ± 15.22. Besides, the Fluorescence intensity in the assay on 293T cells (50 uM) is reported as 63.77 ± 3.37. Further, the Fluorescence intensity in the assay with 293T cells (100 uM) is listed as 58.70 ± 2.66. In addition, in [1], the inhibition at 0.002 µM was found to be 30.5 ± 2.36%, the inhibition at 0.005 µM was 22.1 ± 2.14%, the inhibition at 0.01 µM was 53 ± 5.03% and the inhibition at 0.05 µM turned out to be 56.3 ± 5.03%. Besides, in assay [1], the inhibition at 0.1 µM was found to be 53 ± 4.06%, the inhibition at 1 µM is -7.39 ± 0.22%, the inhibition at 10 µM turned out to be 40.2 ± 3.23% and the inhibition at 50 µM was 71.4 ± 3.26%. Besides, the inhibition at 100 µM in assay [1] is 54 ± 4.39%.

With Adenosine-erucic acid [Adenosine-C22-1], the Fluorescence intensity with 293T cells (2 nM) is 112.01 ± 8.24 and 99.55 ± 5.66; in the assay on 293T cells (5 nM), 89.09 ± 4.19 and 46.06 ± 5.06; in the assay with 293T cells (1 uM), 278.16 ± 8.15 and 299.00 ± 23.21; in the assay on 293T cells (10 uM), 326.69 ± 10.13 and 171.00 ± 14.23. Besides, the “Inhibition rate (%)” value in assay [2] (0.002 µM) was 50.54 ± 1.57%; in assay [2] (0.005 µM), 60.66 ± 1.59%; in [2] (0.01 µM) it was 58.34 ± 1.25%; in assay [2] (0.05 µM) it was 57.33 ± 1.58%; in assay [2] (0.1 µM) it was 64.66 ± 8.23%; in assay [2] (1 µM), -22.83 ± 0.93%. Moreover, the “Inhibition rate (%)” value is -44.26 ± 1.26% in assay [2] (10 µM); 81.44 ± 0.54% in assay [2] (50 µM); 90.08 ± 1.21% in assay [2] (100 µM); 80.11 ± 3.66% in [3] (2 nM); 85.69 ± 4.23% in assay [3] (5 nM); 90.35 ± 4.69% in assay [3] (10 nM). In addition, the “Inhibition rate (%)” value in assay [3] (50 nM) is listed as 92.37 ± 3.35%; in [3] (100 nM), 94.75 ± 1.67%; in [3] (1 μM), 32.83 ± 2.37%; in [3] (10 μM) it was 54.26 ± 1.83%; in assay [3] (50 μM), 91.84 ± 3.95%; in assay [3] (100 μM, negative value = promotes infection), 94.11 ± 2.69%.

The compound Ascorbic acid-eicosapentaenoic acid registered a Fluorescence intensity in the assay on Neocopyovirus of 2.9 ± 0.68.

Take Glucosamine-docosahexaenoic acid: in the assay on Neocopyovirus, the Fluorescence intensity stood at 3.1 ± 0.65.

For Glucose-oleic acid, the Fluorescence intensity in the assay with 293T cells (2 nM) worked out at 102.16 ± 8.65; in the assay with 293T cells (5 nM), 92.37 ± 4.56; in the assay on 293T cells (10 nM), 65.99 ± 6.23; with 293T cells (100 nM), 71.02 ± 4.02; in the assay on 293T cells (1 uM), 436.71 ± 15.66; in the assay on 293T cells (10 uM), 216.29 ± 5.24. The Fluorescence intensity is on record as 42.89 ± 2.32 in the assay on 293T cells (50 uM) and 26.41 ± 5.32 in the assay on 293T cells (100 uM). Moreover, the “Inhibition rate (%)” value was 50.11 ± 3.11% with rabies pseudovirus (0.002 µM); 65.69 ± 6.69% in the assay with rabies pseudovirus (0.005 µM); 80.35 ± 2.06% in the assay on rabies pseudovirus (0.01 µM); 72.37 ± 3.37% in the assay on rabies pseudovirus (0.05 µM); 71.05 ± 2.54% with rabies pseudovirus (0.1 µM); -14.84 ± 1.54% with rabies pseudovirus (1 µM). Besides, the “Inhibition rate (%)” value was -33.5 ± 2.54% with rabies pseudovirus (10 µM), 70.04 ± 5.07% with rabies pseudovirus (50 µM) and 80.21 ± 5.30% in the assay with rabies pseudovirus (100 µM).
